What was measured:
[1] = Apparent clearance during terminal phase in 12 hr starved C57 mouse at 5 mg/kg, iv measured for 0.083 to 24 hrs post-dose by LC-MS-MS analysis; format: ADME, organism-based; details: in vivo, time 0.083-24 hrs
Mus musculus [2] = test: Anti-ulcerative colitis activity against DSS-induced ulcerative colitis C57BL/6 mouse model assessed as body weight recovery rate at 1 mg/kg, IG via gavage administered for 7 days and measured everyday relative to control; format: functional; details: time 7 day
[3] = molecular target: T1, Dual specificity mitogen-activated protein kinase kinase 3 (Mus musculus) (UniProt O09110); test: Binding affinity to MKK3 in mouse RAW264.7 cells assessed as increase in thermal stability at 47 degC incubated for 24 hrs by CETSA; format: cell-based; details: dose 1-64 µM, DDE = dose-dependent effect
T1 sequence (whole entry): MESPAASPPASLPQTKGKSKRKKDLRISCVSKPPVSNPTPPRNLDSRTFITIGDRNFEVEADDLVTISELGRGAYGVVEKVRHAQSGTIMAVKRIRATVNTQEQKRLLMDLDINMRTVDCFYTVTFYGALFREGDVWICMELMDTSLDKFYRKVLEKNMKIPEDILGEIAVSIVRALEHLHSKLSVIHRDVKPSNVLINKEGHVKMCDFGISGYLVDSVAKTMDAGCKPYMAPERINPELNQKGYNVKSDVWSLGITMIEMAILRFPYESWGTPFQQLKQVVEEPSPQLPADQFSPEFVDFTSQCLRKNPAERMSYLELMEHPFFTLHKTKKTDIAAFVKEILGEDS

Mus musculus [4] = test: Antiinflammatory activity against DSS-induced C57BL/6 mouse model of acute ulcerative colitis assessed as inhibition ratio of TNF-alpha protein expression at 1 mg/kg, IG via gavage measured after 7 days by ELISA relative to control; format: functional; set-up: scale not given: the % may be the effect or the level left; details: time 7 day
[5] = Cmax in 12 hr starved C57 mouse at 5 mg/kg, iv measured for 0.083 to 24 hrs post-dose by LC-MS-MS analysis; format: ADME, organism-based; set-up: time upper 24 hrs, time lower 0.083 hrs, dose 5 mg/kg, route iv; details: in vivo
Mus musculus [6] = test: Antiinflammatory activity against IL-10-/- C57BL/6 mouse model of ulcerative colitis assessed as inhibition ratio of IL-23 protein expression at 1 mg/kg, IG via gavage and measured after 8 weeks by ELISA relative to control; format: functional; set-up: scale not given: the % may be the effect or the level left
Mus musculus [7] = test: Anti-ulcerative colitis activity against DSS-induced ulcerative colitis C57BL/6 mouse model assessed as body weight recovery rate at 10 mg/kg, IG via gavage administered for 7 days and measured everyday relative to control; format: functional; details: time 7 day
[8] = Tmax in 12 hr starved C57 mouse at 30 mg/kg, po measured for 0.083 to 24 hrs post-dose by LC-MS-MS analysis; format: ADME, organism-based; details: in vivo, time 0.083-24 hrs
Mus musculus [9] = test: Anti-ulcerative colitis activity in IL-10-/- C57BL/6 mouse model of ulcerative colitis assessed as colon length recovery ratio at 3 mg/kg, IG via gavage for 8 weeks relative to control; format: functional

## COc1ccc([C@H]2CC(=O)c3cc(OC)cc(OC)c32)cc1
[1]
  CLz/F: 9.67 mL/min/kg
Mus musculus [2]
  Activity: 22.7%
[3]
  Activity: Dde
Mus musculus [4]
  Activity: 32.9%
[5]
  Cmax: 2920 ng/mL
Mus musculus [6]
  Activity: 39.6%
Mus musculus [7]
  Activity: 52.4%
[8]
  Tmax: 4.98 min
Mus musculus [9]
  Activity: 29.4%

Source: ChEMBL document CHEMBL5154881, “Discovery of First-in-Class TAK1-MKK3 Protein-Protein Interaction (PPI) Inhibitor (R)-STU104 for the Treatment of Ulcerative Colitis through Modulating TNF-α Production” (J Med Chem, 2022)
